Assay results taken from US10179770B2, “Quinolines derivatives as novel anticancer agents” (GENOSCIENCE PHARMA, priority 2013, dated 2019).
Structures can show the parent of a compound that is named as a salt. Where two headings read alike, the source gives them in different places.

Assays:
Assay in all cases: Cell proliferation assay at 10 μM
[1] = tested on: A375; type: cell-based, human; details: for viability at 10 µM: Homo sapiens, read-out: Cell viability observed at 10 μM
Description: (§1) The human melanoma cell line A375 and colorectal carcinoma cell line HCT-116 were cultured in Dulbecco's modified Eagle's medium supplemented with 10% fetal bovine serum and 1% Penicillin-Streptomycin. The human leukemia cell line MOLM-14 was cultured in Minimum Essential Medium Alpha Medium supplemented with 10% Fetal Bovine Serum and 1% Penicillin-Streptomycin. All the cell lines were maintained at 37° C. with 5% CO2.
(§2) Briefly, adherent cells, A375 and HCT-116 cells were respectively plated at 800 or 5,000 cells per well onto 96-well plates in 90 μL of media per well and were allowed to grow overnight before the assay.
(§3) Compounds were added at different concentrations to each well, and cell cultures were incubated for 72 h. Vehicle (DMSO or H2O) was used as a control, and all compounds were tested in a constant percentage of vehicle. Cell outgrowth was measured using for adherent cells CellTiter […] Aqueous One Solution Cell Proliferation Assay (Promega) and for cell suspension, Sulforhodamine B colorimetric assay as described in Vichai et al. (Vichai, V. and Kirtikara, K. Nat. Protoc. 2006 (1) 1112-1116). Absorbance was measured using an Infinite F200 Pro or Sunrise TECAN plate reader.
(§4) In each experiment, each point represents the average of two replicates in cell culture.
(§5) Results are presented in Table 1 below for concentrations of 10 μM of tested compounds.

[2] = tested on: HCT-116; type: cell-based; details: Homo sapiens, HCT-116, 72 h
Description: as §1, §2, §3, §4, §5

[3] = tested on: MOLM-14; type: cell-based, human; details: for viability at 10 µM: Homo sapiens, read-out: Cell viability observed at 10 μM
Description: as §1
For MOLM-14 cell line, which grows in suspension, 30,000 cells were plated onto 96-well plates immediately before the assay.
as §3, §4, §5

[4] = A-375, A375, 10 μM, 72 h, % of cell viability remaining
[5] = HCT-116, 10 μM, 72 h, % of cell viability remaining, read-out: Cell viability observed at 10 μM
[6] = MOLM-14, 10 μM, 72 h, % of cell viability remaining
[7] = A375, 10 μM, 72 h, % of cell viability remaining
[8] = read-out: Cell viability observed at 10 μM

CCN(CC)C1CCN(c2cc(-c3ccccc3)nc3ccccc23)CC1 [Compound I-3, 2-phenyl-4-(4-N,N-diethylamino-piperidin-1-yl)quinoline]
viability at 10 µM [1, 4]: > 80%
viability at 10 µM [2, 5]: > 80%
viability at 10 µM [3, 6]: 60 to 80%

CCN(CC)C1CCN(c2cc(-c3ccccc3)nc3ccccc23)CC1.Cl.Cl [Compound I-4, 2-phenyl-4-(4-N,N-diethylamino-piperidin-1-yl)quinoline dihydrochloride]
Cell viability observed at 10 μM [1, 7]: − (cell viability %>80)
Cell viability observed at 10 μM [3, 6]: + (cell viability 60>%<80)

c1ccc(-c2cc(N3CCC(N4CCOCC4)CC3)c3ccccc3n2)cc1 [Compound V-2, 2-phenyl-4-[(4-morpholin-4-yl)piperidin-1yl]quinoline dihydrochloride]
viability at 10 µM ([1]; A-375, 72 h): > 80%
viability at 10 µM [2, 8]: > 80%
viability at 10 µM ([3]; MOLM-14, 72 h): 60 to 80%

CCN(CC)C1CCN(c2cc(-c3ccc(Cl)cc3)nc3ccccc23)CC1 [Compound X-6, 2-(4-chloro-phenyl)-4-(4-N,N-diethylamino-piperidin-1-yl)quinoline dihydrochloride]
viability at 10 µM ([1]; A-375, 72 h): < 20%
viability at 10 µM [2, 8]: < 20%
viability at 10 µM ([3]; MOLM-14, 72 h): 40 to 60%

CCN(CC)C1CCN(c2cc(-c3ccccc3)nc3cc(Cl)ccc23)CC1 [II-4, 7-chloro-2-phenyl-4-(4-N,N-diethylamino-piperidin-1-yl)quinoline dihydrochloride]
viability at 10 µM ([1]; A-375, 72 h): < 20%
viability at 10 µM [2, 8]: 20 to 40%
viability at 10 µM ([3]; MOLM-14, 72 h): 60 to 80%

c1ccc(-c2cc(N3CCC(N4CCCCC4)CC3)c3ccccc3n2)cc1 [III-4, 2-phenyl-4-([1,4′]-bipiperidin-1′-yl)quinoline dihydrochloride]
viability at 10 µM ([1]; A-375, 72 h): > 80%
viability at 10 µM [2, 8]: > 80%
viability at 10 µM ([3]; MOLM-14, 72 h): 60 to 80%

CC(C)(C)NC1CCN(c2cc(-c3ccccc3)nc3ccccc23)CC1 [IV-2, 2-phenyl-4-(4-N-tert-butylamino-piperidin-1-yl)quinoline dihydrochloride]
viability at 10 µM ([1]; A-375, 72 h): 40 to 60%
viability at 10 µM [2, 8]: 60 to 80%
viability at 10 µM ([3]; MOLM-14, 72 h): 20 to 40%

CCN(CC)C1CCN(c2cc(-c3ccc4ccccc4c3)nc3ccccc23)CC1 [VI-6, 2-(2-naphtyl)-4-(4-N,N-diethylamino-piperidin-1-yl)quinoline dihydrochloride]
viability at 10 µM ([1]; A-375, 72 h): < 20%
viability at 10 µM [2, 8]: < 20%
viability at 10 µM ([3]; MOLM-14, 72 h): < 20%

CCN(CC)C1CCN(c2cc(-c3ccc(Br)cc3)nc3ccccc23)CC1 [VIII-6, 2-(4-bromo-phenyl)-4-(4-N,N-diethylamino-piperidin-1-yl)-quinoline dihydrochloride]
viability at 10 µM ([1]; A-375, 72 h): < 20%
viability at 10 µM [2, 5]: < 20%
viability at 10 µM ([3]; MOLM-14, 72 h): 20 to 40%

CN(C)CCCNc1cc(-c2ccccc2)nc2ccccc12.Cl.Cl [XLI-2, N^1,N^1-dimethyl-N^3-(2-phenylquinoline-4-yl)propane-1,3-diamine hydrochloride salt]
Cell viability observed at 10 μM [1, 7]: ++++ (cell viability %<20)
Cell viability observed at 10 μM [3, 6]: ++++ (cell viability %<20)

CN(C)CCCNC(=O)c1cc(-c2ccccc2)nc2cc(Cl)ccc12 [XLIII-2, N-[3-(dimethylamino)propyl]-7-chloro-2-phenylquinoline-4-carboxamide hydrochloride salt]
viability at 10 µM ([1]; A-375, 72 h): < 20%
viability at 10 µM [2, 8]: > 80%
viability at 10 µM ([3]; MOLM-14, 72 h): 60 to 80%

CN(C)CCCNCc1cc(-c2ccccc2)nc2cc(Cl)ccc12 [XLIV-2, N^1,N^1-dimethyl-N^3-(7-chloro-2-phenylquinoline-4-ylmethyl)-propane-1,3-diamine hydrochloride salt]
viability at 10 µM ([1]; A-375, 72 h): < 20%
viability at 10 µM [2, 8]: < 20%
viability at 10 µM ([3]; MOLM-14, 72 h): < 20%

CCN(CC)C1CCN(C(=O)c2cc(-c3ccccc3)nc3ccccc23)CC1 [XVIII-2, 4-[4-(N,N-diethylamino)piperidin-1-ylcarbonyl]-2-phenyl-quinoline dihydrochloride]
viability at 10 µM [1, 4]: > 80%
viability at 10 µM [2, 5]: > 80%
viability at 10 µM [3, 6]: > 80%

CCN(CC)C1CCN(Cc2cc(-c3ccccc3)nc3ccccc23)CC1 [XX-5, 2-phenyl-4-[4-(N,N-diethylamino)-piperidin-1-ylmethyl]quinoline dihydrochloride]
viability at 10 µM ([1]; A-375, 72 h): 60 to 80%
viability at 10 µM [2, 8]: > 80%
viability at 10 µM ([3]; MOLM-14, 72 h): 40 to 60%

CC(c1cc(-c2ccccc2)nc2ccccc12)N1CCC(N(CCc2ccccc2)Cc2ccccc2)CC1 (stereo not shown) [XXI-4, 2-phenyl-4-{1-{4-[benzyl(phenethyl)amino]-piperidin-1-yl}-eth-1-yl}quinoline dihydrochloride]
viability at 10 µM ([1]; A-375, 72 h): > 80%
viability at 10 µM [2, 8]: > 80%
viability at 10 µM ([3]; MOLM-14, 72 h): > 80%

CN(c1cc(-c2ccccc2)nc2cc(Cl)ccc12)C1CCN(Cc2ccccc2)CC1 [XXIX-2, 7-chloro-2-phenyl-4-[N-methyl-N—(N-benzylpiperidin-4-yl)-amino]quinoline hydrochloride salt]
viability at 10 µM [1, 4]: > 80%
viability at 10 µM [2, 5]: > 80%
viability at 10 µM [3, 6]: > 80%

CCN(CC)CC1CCN(c2cc(-c3ccccc3)nc3cc(Cl)ccc23)CC1 [XXVI-4, 7-chloro-2-phenyl-4-[4-(N,N-diethylaminomethyl)-piperidin-1-yl]-quinoline hydrochloride salt]
viability at 10 µM ([1]; A-375, 72 h): > 80%
viability at 10 µM [2, 8]: > 80%
viability at 10 µM ([3]; MOLM-14, 72 h): > 80%

CCN(CC)CC1CCN(c2cc(-c3ccccc3)nc3ccccc23)CC1 [XXVII-2, 2-phenyl-4-[4-(N,N-diethylaminomethyl)-piperidin-1-yl)quinoline hydrochloride salt]
viability at 10 µM ([1]; A-375, 72 h): 20 to 40%
viability at 10 µM [2, 8]: > 80%
viability at 10 µM ([3]; MOLM-14, 72 h): 40 to 60%

CC(c1ccccc1)N1CCC(N(C)c2cc(-c3ccccc3)nc3cc(Cl)ccc23)CC1 (stereo not shown) [XXX-2, 7-chloro-2-phenyl-4-[N-methyl-N—(N-1-phenylethyl-piperidin-4-yl)-amino]quinoline]
viability at 10 µM ([1]; A-375, 72 h): > 80%
viability at 10 µM ([2]; read-out: Cell viability observed at 10 μM, HCT-116, 10 μM, 72 h, % of cell viability remaining): > 80%
viability at 10 µM ([3]; MOLM-14, 72 h): 60 to 80%

CC(c1ccccc1)N1CCC(N(C)c2cc(-c3ccccc3)nc3ccccc23)CC1 (stereo not shown) [XXXI-2, 2-phenyl-4-[N-methyl-N—(N-1-phenylethyl-piperidin-4-yl)-amino]quinoline hydrochloride salt]
viability at 10 µM [1, 4]: > 80%
viability at 10 µM [2, 5]: > 80%
viability at 10 µM [3, 6]: > 80%

O=C(NC1CCN(Cc2ccccc2)CC1)c1cc(-c2ccccc2)nc2cc(Cl)ccc12 [XXXII-2, N-(1-benzylpiperidin-4-yl)-7-chloro-2-phenylquinoline-4-carboxamide hydrochloride salt]
viability at 10 µM ([1]; A-375, 72 h): > 80%
viability at 10 µM [2, 8]: > 80%
viability at 10 µM ([3]; MOLM-14, 72 h): 40 to 60%

CC(NC1CCN(Cc2ccccc2)CC1)c1cc(-c2ccccc2)nc2ccccc12 (stereo not shown) [XXXIV-2, 2-phenyl-4-{1-[(N-benzyl-piperidin-4-yl)amino]-eth-1-yl}quinoline hydrochloride salt]
viability at 10 µM ([1]; A-375, 72 h): < 20%
viability at 10 µM [2, 8]: 20 to 40%
viability at 10 µM ([3]; MOLM-14, 72 h): 40 to 60%

CN(C)CCCN(C)c1cc(-c2ccc3ccccc3c2)nc2ccccc12 [XXXIX-2, N^1,N^1,N^3-trimethyl-N^3-[2-(naphthalen-2-yl)-quinoline-4-yl]-propane-1,3-diamine hydrochloride salt]
viability at 10 µM ([1]; A-375, 72 h): < 20%
viability at 10 µM [2, 8]: < 20%
viability at 10 µM ([3]; MOLM-14, 72 h): < 20%

CC(NC1CCN(Cc2ccccc2)CC1)c1cc(-c2ccccc2)nc2cc(Cl)ccc12 (stereo not shown) [XXXV-2, 7-chloro-2-phenyl-4-{1-[(N-benzyl-piperidin-4-yl)amino]-eth-1-yl}quinoline hydrochloride salt]
viability at 10 µM ([1]; A-375, 72 h): > 80%
viability at 10 µM [2, 8]: > 80%
viability at 10 µM ([3]; MOLM-14, 72 h): > 80%

CN(C)CCN(C)c1cc(-c2ccc3ccccc3c2)nc2ccccc12 [XXXVII-2, N^1,N^1,N^2-trimethyl-N^2-(2-naphthalen-2-yl-quinoline-4-yl)-ethane-1,2-diamine hydrochloride salt]
viability at 10 µM ([1]; A-375, 72 h): 40 to 60%
viability at 10 µM [2, 8]: > 80%
viability at 10 µM ([3]; MOLM-14, 72 h): 40 to 60%

CN(C)CCN(C)Cc1cc(-c2ccccc2)nc2cc(Cl)ccc12 [XXXVIII-2, N^1,N^1,N^2-trimethyl-N^2-(2-phenyl-7-chloro-quinoline-4-ylmethyl)-ethane-1,2-diamine hydrochloride salt]
viability at 10 µM ([1]; A-375, 72 h): < 20%
viability at 10 µM [2, 8]: < 20%
viability at 10 µM ([3]; MOLM-14, 72 h): 40 to 60%
